Data: ChEMBL document CHEMBL4196217, “Structure-Based Drug Design and Identification of H2O-Soluble and Low Toxic Hexacyclic Camptothecin Derivatives with Improved Efficacy in Cancer and Lethal Inflammation Models in Vivo” (J Med Chem, 2018)
Activity calls are given as the source filed them. No cut-off for these calls is given here.

How the values were obtained:
MDA-MB-231 = assay: Cytotoxicity in human MDA-MB-231 cells assessed as reduction in cell viability incubated for 48 hrs by MTT assay; format: functional, cell-based; details: MDA-MB-231, 48 h
HepG2 [1] = assay: Cytotoxicity in human HepG2 cells assessed as reduction in cell viability incubated for 48 hrs by MTT assay; format: functional, cell-based; details: HepG2, 48 h
KB = assay: Cytotoxicity in human KB cells assessed as reduction in cell viability incubated for 48 hrs by MTT assay; format: functional, cell-based
Bel-7402 = assay: Cytotoxicity in human Bel7402 cells assessed as reduction in cell viability incubated for 48 hrs by MTT assay; format: functional, cell-based; details: Bel-7402, 48 h
SMMC-7721 = assay: Cytotoxicity in human SMMC7721 cells assessed as reduction in cell viability incubated for 48 hrs by MTT assay; format: functional, cell-based; details: SMMC-7721, 48 h
MGC-803 [2] = assay: Cytotoxicity in human MGC803 cells assessed as reduction in cell viability incubated for 48 hrs by MTT assay; format: functional, cell-based; details: MGC-803, 48 h
QGY-7703 = assay: Cytotoxicity in human QGY7703 cells assessed as reduction in cell viability incubated for 48 hrs by MTT assay; format: functional, cell-based; details: QGY-7703, 48 h
SGC-7901 = assay: Cytotoxicity in human SGC7901 cells assessed as reduction in cell viability incubated for 48 hrs by MTT assay; format: functional, cell-based; details: SGC-7901, 48 h
HepG2 [3] = assay: Potency index, ratio of IC50 for topotecan to IC50 for test compound for cytotoxicity in human HepG2 cells assessed as reduction in cell viability incubated for 48 hrs by MTT assay; format: functional
MGC-803 [4] = assay: Potency index, ratio of IC50 for topotecan to IC50 for test compound for cytotoxicity in human MGC803 cells assessed as reduction in cell viability incubated for 48 hrs by MTT assay; format: functional
A549 = assay: cells; details: Homo sapiens, A549, 48 h
Description: Cytotoxicity in human A549 cells assessed as reduction in cell viability incubated for 48 hrs by MTT assay

MCF7 = assay: cells; details: Homo sapiens, MCF7, 48 h
Description: Cytotoxicity in human MCF7 cells assessed as reduction in cell viability incubated for 48 hrs by MTT assay

HepG2 [5] = assay: Antitumor activity against human HepG2 cells xenografted in Balb/C mouse assessed as inhibition of tumor growth at dosed intravenously once per week for 30 days followed by 2 weeks observation; format: functional, organism-based
[6] = molecular target: T1, DNA topoisomerase 1 (Homo sapiens) (UniProt P11387); assay: Inhibition of human recombinant topoisomerase-1 activity at 50 uM using supercoiled pHOT-1 DNA incubated for 30 mins by ethidium bromide free agarose gel elctrophoresis method
T1 sequence (whole entry): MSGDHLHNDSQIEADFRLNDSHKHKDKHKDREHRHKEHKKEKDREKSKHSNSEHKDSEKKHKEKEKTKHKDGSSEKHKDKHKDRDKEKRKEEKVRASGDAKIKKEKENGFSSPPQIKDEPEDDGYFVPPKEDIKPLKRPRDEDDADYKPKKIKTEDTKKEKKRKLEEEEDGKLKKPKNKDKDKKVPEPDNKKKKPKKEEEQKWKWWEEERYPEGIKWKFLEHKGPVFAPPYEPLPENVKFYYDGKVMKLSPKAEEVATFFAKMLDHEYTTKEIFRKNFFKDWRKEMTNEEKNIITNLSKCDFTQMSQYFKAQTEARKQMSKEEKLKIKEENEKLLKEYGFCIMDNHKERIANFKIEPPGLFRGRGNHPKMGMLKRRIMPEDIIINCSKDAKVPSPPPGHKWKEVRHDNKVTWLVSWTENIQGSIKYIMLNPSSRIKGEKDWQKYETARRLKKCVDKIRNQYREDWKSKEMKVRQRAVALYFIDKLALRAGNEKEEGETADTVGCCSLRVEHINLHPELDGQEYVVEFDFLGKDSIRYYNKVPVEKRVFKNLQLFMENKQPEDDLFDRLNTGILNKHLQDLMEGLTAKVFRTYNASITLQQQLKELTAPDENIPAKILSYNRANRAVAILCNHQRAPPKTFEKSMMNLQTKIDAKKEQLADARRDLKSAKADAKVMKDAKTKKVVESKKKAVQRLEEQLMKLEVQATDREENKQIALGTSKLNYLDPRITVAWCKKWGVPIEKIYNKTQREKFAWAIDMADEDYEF

[7] = molecular target: T1, DNA topoisomerase 1 (Homo sapiens); assay: Inhibition of human recombinant topoisomerase-1 activity at 100 uM using supercoiled pHOT-1 DNA incubated for 30 mins by ethidium bromide free agarose gel elctrophoresis method
[8] = molecular target: T1, DNA topoisomerase 1 (Homo sapiens); assay: Inhibition of human recombinant topoisomerase-1-mediated DNA cleavage in at 50 uM using supercoiled pHOT-1 DNA incubated for 30 mins by ethidium bromide staining based agarose gel elctrophoresis method
Mus musculus [9] = assay: Reduction in IL6 level in C57BL/6 mouse model of LPS-induced sepsis at 2 mg/kg, iv dosed 0.5 hrs before LPS injection followed by 2 mg/kg, iv dosing at 1 hr, 4 hrs, and 8 hrs after LPS treatment; format: functional, organism-based
Mus musculus [10] = assay: Reduction in IL6 level in C57BL/6 mouse model of LPS-induced sepsis at 4 mg/kg, iv dosed 0.5 hrs before LPS injection followed by 4 mg/kg, iv dosing at 1 hr, 4 hrs, and 8 hrs after LPS treatment; format: functional, organism-based
Mus musculus [11] = assay: Reduction in IL6 level in C57BL/6 mouse model of LPS-induced sepsis at 4 mg/kg, po dosed 0.5 hrs before LPS injection followed by 4 mg/kg, po dosing at 1 hr, 4 hrs, and 8 hrs after LPS treatment; format: functional, organism-based
Mus musculus [12] = assay: Reduction in IL6 level in C57BL/6 mouse model of LPS-induced sepsis at 8 mg/kg, po dosed 0.5 hrs before LPS injection followed by 8 mg/kg, po dosing at 1 hr, 4 hrs, and 8 hrs after LPS treatment; format: functional, organism-based
SK-N-SH = assay: Cytotoxicity in human SK-N-SH cells assessed as reduction in cell viability incubated for 48 hrs by MTT assay; format: functional, cell-based
HepG2 [13] = assay: Antitumor activity against human HepG2 cells xenografted in Balb/C mouse assessed as inhibition of tumor growth at 15 mg/kg, iv dosed once per week for 30 days followed by 2 weeks observation relative untreated control; format: functional; details: read-out: TGI
Mus musculus [14] = assay: Toxicity in human HepG2 cells xenografted Balb/C mouse assessed as reduction in body weight at 15 mg/kg, iv dosed once per week for 30 days followed by 2 weeks observation; format: organism-based; details: in vivo, 336 h
Mus musculus [15] = assay: Toxicity in human HepG2 cells xenografted Balb/C mouse assessed as reduction in body weight at 30 mg/kg, iv dosed once per week for 30 days followed by 2 weeks observation; format: organism-based; details: in vivo, 336 h
Mus musculus [16] = assay: Protection against LPS-induced lethal inflammation in C57BL/6 mouse model of sepsis assessed as survival at 10 mg/kg, po dosed 0.5 hrs before LPS injection followed by 10 mg/kg, po dosing at 1 hr, 4 hrs, and 8 hrs after LPS treatment; format: functional
[17] = Drug level in plasma of C57BL/6 mouse at 2 mg/kg, iv measured up to 1 hr by LC-MS/MS analysis; format: ADME, organism-based; details: in vivo
[18] = Drug metabolism in plasma of C57BL/6 mouse assessed as (9S)-9-Ethyl-9-hydroxy-3-isopropyl-2,3-dihydro[1,3]-oxazino[5,6-f ]pyrano[3',4':6,7]indolizino[1,2-b]quinoline-1,10,13(9H,12H,15H)-trione formation at 2 mg/kg, iv measured up to 1 hr by LC-MS/MS analysis; format: ADME, organism-based; details: in vivo
[19] = Drug metabolism in plasma of C57BL/6 mouse assessed as (S)-8-Ethyl-8-hydroxy-2-isopropyl-8H-oxazolo[4,5-f ]-pyrano[3',4':6,7]indolizino[1,2-b]quinoline-9,12(11H,14H)-dione formation at 2 mg/kg, iv measured up to 1 hr by LC-MS/MS analysis; format: ADME, organism-based; details: in vivo
[20] = Aqueous solubility of the compound; format: physicochemical; details: buffer
Mus musculus [21] = assay: Toxicity in Balb/C mouse administered as single dose measured daily for up to 28 days; format: organism-based; details: in vivo, 672 h
Mus musculus [22] = assay: Toxicity in Balb/C mouse administered as daily dose for 1 week measured daily for up to 28 days; format: organism-based; details: in vivo
[23] = molecular target: T1, DNA topoisomerase 1 (Homo sapiens); assay: Inhibition of human recombinant topoisomerase-1-mediated DNA cleavage in at 100 uM using supercoiled pHOT-1 DNA incubated for 30 mins by ethidium bromide staining based agarose gel elctrophoresis method
Mus musculus [24] = assay: Reduction in IL6 level in C57BL/6 mouse model of LPS-induced sepsis at 10 mg/kg, po dosed 0.5 hrs before LPS injection followed by 10 mg/kg, po dosing at 1 hr, 4 hrs, and 8 hrs after LPS treatment; format: functional, organism-based
Mus musculus [25] = assay: Reduction in IL6 level in C57BL/6 mouse model of LPS-induced sepsis at 10 mg/kg, po dosed 0.5 hrs before LPS injection followed by 20 mg/kg, po dosing at 1 hr, 4 hrs, and 8 hrs after LPS treatment; format: functional, organism-based

CC[C@@]1(O)C(=O)OCc2c1cc1n(c2=O)Cc2cc3c(ccc4oc(C(C)C)nc43)nc2-1
IC50 (MDA-MB-231): 1440 nM | IC50 (HepG2 [1]): 16 nM | IC50 (KB): 2200 nM | IC50 (Bel-7402): 3480 nM | IC50 (SMMC-7721): 10400 nM | IC50 (MGC-803 [2]): 18 nM | IC50 (QGY-7703): 11600 nM | IC50 (SGC-7901): > 10000 nM | Ratio IC50 (HepG2 [3]): 10 | Ratio IC50 (MGC-803 [4]): 10 | IC50 (A549): 1390 nM | IC50 (MCF7): 4640 nM

CC[C@@]1(OC(=O)CNC(=O)CCC(=O)O)C(=O)OCc2c1cc1n(c2=O)Cc2cc3c4c(ccc3nc2-1)OC(C(C)C)NC4=O (stereo partly specified)
TGI (HepG2 [5]): Dose-dependent effect | inhibition [6]: inactive | inhibition [7]: inactive | inhibition [8]: inactive | Activity (Mus musculus [9]): Active | Activity (Mus musculus [10]): Active | Activity (Mus musculus [11]): Active | Activity (Mus musculus [12]): Active

CC[C@@]1(OC(=O)CNC(=O)CCC(=O)O)C(=O)OCc2c1cc1n(c2=O)Cc2cc3c(ccc4oc(C(C)C)nc43)nc2-1 [listing 1 of 2 here]
IC50 (MDA-MB-231): 425 nM | IC50 (HepG2 [1]): 60 nM | IC50 (KB): 935 nM | IC50 (Bel-7402): 425 nM | IC50 (SMMC-7721): 8500 nM | IC50 (MGC-803 [2]): 62 nM | IC50 (SK-N-SH): 510 nM | IC50 (QGY-7703): > 10000 nM | IC50 (SGC-7901): > 10000 nM | inhibition in vivo at 15 mg/kg (HepG2 [13]): 86% | Activity (Mus musculus [14]): Non-Toxic | Activity (Mus musculus [15]): Non-Toxic | Activity (Mus musculus [16]): 80% | Drug uptake [17]: Not Active | Drug metabolism [18]: Metabolite_Notdetected | Drug metabolism [19]: Metabolite_Notdetected | IC50 (A549): 170 nM | IC50 (MCF7): > 10000 nM

CC[C@@]1(OC(=O)CNC(=O)CCC(=O)[O-])C(=O)OCc2c1cc1n(c2=O)Cc2cc3c4c(ccc3nc2-1)OC(C(C)C)NC4=O.[Na+] (stereo partly specified)
solubility [20]: 3400 µg/mL | MTD (Mus musculus [21]): 16 mg/kg | MTD (Mus musculus [22]): 10 mg/kg

CC[C@@]1(OC(=O)CNC(=O)CCC(=O)[O-])C(=O)OCc2c1cc1n(c2=O)Cc2cc3c(ccc4oc(C(C)C)nc43)nc2-1.[Na+]
solubility [20]: 5070 µg/mL | MTD (Mus musculus [21]): 60 mg/kg | MTD (Mus musculus [22]): 30 mg/kg

CC[C@@]1(O)C(=O)OCc2c1cc1n(c2=O)Cc2cc3c(ccc4oc(-c5ccccn5)nc43)nc2-1
IC50 (MDA-MB-231): 2000 nM | IC50 (HepG2 [1]): 71 nM | IC50 (KB): 2040 nM | IC50 (Bel-7402): 1930 nM | IC50 (SMMC-7721): > 10000 nM | IC50 (MGC-803 [2]): 54 nM | IC50 (QGY-7703): > 10000 nM | IC50 (SGC-7901): > 10000 nM | IC50 (A549): 1500 nM | IC50 (MCF7): 6440 nM

CC[C@@]1(OC(=O)CNC(=O)CCC(=O)O)C(=O)OCc2c1cc1n(c2=O)Cc2cc3c(ccc4oc(C(C)C)nc43)nc2-1 [listing 2 of 2 here]
TGI (HepG2 [5]): Dose-dependent effect | inhibition [6]: Active | inhibition [7]: Active | inhibition [8]: Active | inhibition [23]: Active | Activity (Mus musculus [24]): Active | Activity (Mus musculus [25]): Active
